# “Also recorded” adds a separate entry of the source.
# T1: CYP3A2 (Rattus norvegicus, UniProt P05183)
# T1 construct: tissue Merck; host or cells: pooled liver microsomes from male Sprague Dawley rats
# T1 sequence (P05183 1-504): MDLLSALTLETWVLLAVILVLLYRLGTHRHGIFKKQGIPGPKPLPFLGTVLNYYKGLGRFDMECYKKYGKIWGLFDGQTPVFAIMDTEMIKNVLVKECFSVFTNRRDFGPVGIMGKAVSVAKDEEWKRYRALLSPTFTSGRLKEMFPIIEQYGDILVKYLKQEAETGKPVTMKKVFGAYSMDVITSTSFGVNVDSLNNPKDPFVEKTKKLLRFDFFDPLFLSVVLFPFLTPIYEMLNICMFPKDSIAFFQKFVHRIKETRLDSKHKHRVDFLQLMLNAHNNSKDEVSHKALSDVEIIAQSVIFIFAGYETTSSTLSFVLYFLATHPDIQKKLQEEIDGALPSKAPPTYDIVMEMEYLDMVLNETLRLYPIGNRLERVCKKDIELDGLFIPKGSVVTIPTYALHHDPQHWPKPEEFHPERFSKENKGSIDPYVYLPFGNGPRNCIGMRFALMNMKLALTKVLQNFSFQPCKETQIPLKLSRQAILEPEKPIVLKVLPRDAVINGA
# What was measured:
# [1] = Solution stability of working standards at ambient temperature, intraday and interday, HPLC; assay type: physicochemical; conditions: for Solution stability: intraday and interday analysis
# Experimental: Stability samples were analyzed in triplicate.
# Experiments were performed in triplicate, and the results are summarized below in Table 8.
# [2] = biological target: T1, CYP3A2; assay: Inhibition of dexamethasone 6β-hydroxylation (CYP3A2 activity) by aspirin in rat liver microsomes, HPLC; assay type: in vitro ADME; conditions: for Clint: Vmax/Km; for Vmax: n = 3
# Experimental: Assay development and validation were carried out using a LC-2010A HT Module HPLC system (Shimadzu, Toyko, Japan). […] The chromatographic separation was performed at 25 °C and at a flow rate of 0.6 mL/min. A 10 µL solution volume was injected for HPLC analysis, and all the components were detected at the 243 nm wavelength. Table 11 provides information concerning efficiency (N), where N = 5.54 × (tR/W½) and W½ = width at half peak height; plate height (H), where H(cm) = column length/N; asymmetry factor (AsF), where AsF = B/A, and A is the distance from the leading edge of the peak to the midpoint of the peak measured at 10% of peak height, and B is the distance from the midpoint of the peak to the trailing edge of the peak measured at 10% of the peak height; and resolution (Rs), where Rs = 2∆tR/0.5(W1 + W2), and W is the width at the peak base.
# Ice-cold-grade acetonitrile containing 15 µM 4-hydroxyoctanophenone (as an internal standard) was added to terminate the reaction. […] The polar extracts were evaporated to dryness, and the residues were dissolved in the mobile phase (70% acetonitrile and 30% water, v/v) and made up to 1000 µL in volume. An amount of 10 µL of each sample was injected into the HPLC instrument for analysis.
# Data were analysed using Microsoft Excel 2010 software for validation and the kinetic parameters. All results are shown as mean ± S.D. The least-square regression analysis was performed to calculate the concentration of the metabolite produced by the CYP reaction. Secondary Lineweaver–Burk plots and Michaelis–Menten plots were plotted to find kinetic parameters such as Ki, Vmax, Km, Clint, and α^,. Inhibition was assumed to be competitive based on the obtained data and based on a visual inspection of the Lineweaver–Burk plot. […] Km values were used to calculate the percentage of inhibition.
# [3] = substrate: C[C@@H]1C[C@H]2[C@@H]3CCC4=CC(=O)C=C[C@]4(C)[C@@]3(F)[C@@H](O)C[C@]2(C)[C@@]1(O)C(=O)CO; assay: cells, lysate or membranes named; conditions: other: 0 µM aspirin (no inhibitor), rat liver microsomes 0.5 mg/mL, n = 3; pH 7.4; 37.0 °C
# Experimental: Data were analysed using Microsoft Excel 2010 software for validation and the kinetic parameters. All results are shown as mean ± S.D. The least-square regression analysis was performed to calculate the concentration of the metabolite produced by the CYP reaction. Secondary Lineweaver–Burk plots and Michaelis–Menten plots were plotted to find kinetic parameters such as Ki, Vmax, Km, Clint, and α^,. […] Km values were used to calculate the percentage of inhibition.
# [4] = male, rat, liver microsomes, pH 7.4, probe dexamethasone (6β-hydroxylation), 10, 20, 30, 40 and 50 µM
molecule,measurement,setting,value
C[C@@H]1C[C@H]2[C@@H]3CCC4=CC(=O)C=C[C@]4(C)[C@@]3(F)[C@@H](O)C[C@]2(C)[C@@]1(O)C(=O)CO [Dexamethasone],% Recovery,"[1]; Interday 1, 40 µM",80.04%
same,% Recovery,"[1]; Interday 1, 110 µM",85.81%
same,% Recovery,"[1]; Interday 1, 185 µM",98.26%
same,% Recovery,"[1]; Interday 2, 40 µM",87.31%
same,% Recovery,"[1]; Interday 2, 110 µM",91.30%
same,% Recovery,"[1]; Interday 2, 185 µM",104.78%
same,% Recovery,"[1]; Interday 3, 40 µM",85.29%
same,% Recovery,"[1]; Interday 3, 110 µM",82.36%
same,% Recovery,"[1]; Interday 3, 185 µM",101.20%
same,% Recovery,"[1]; intraday 0 h, 40 µM",88.51%
same,% Recovery,"[1]; intraday 0 h, 110 µM",80.58%
same,% Recovery,"[1]; intraday 0 h, 185 µM",95.66%
same,% Recovery,"[1]; intraday 5 h, 40 µM",80.50%
same,% Recovery,"[1]; intraday 5 h, 110 µM",84.03%
same,% Recovery,"[1]; intraday 5 h, 185 µM",109.49%
same,% Recovery,"[1]; intraday 10 h, 40 µM",80.80%
same,% Recovery,"[1]; intraday 10 h, 110 µM",84.43%
same,% Recovery,"[1]; intraday 10 h, 185 µM",110.03%
same,Solution stability,[1],stable for up to three days
"CC(=O)Oc1ccccc1C(=O)O [Aspirin, acetylsalicylic acid]",IC50,[2],191 µM
same,á,[2]; 50 µM aspirin,1.03 ± 0.01
same,á,[2]; 100 µM aspirin,1.02 ± 0.06
same,á,[2]; 200 µM aspirin,1.04 ± 0.01
same,Mode of inhibition of CYP3A2,"[2]; Lineweaver-Burk plot, rat liver microsomes",competitively inhibits; also recorded: competitive inhibitor
same,Clint,[2]; with 50 µM aspirin,0.0005 ± 4.00 × 10^−6 µM^−2∙min^−1
same,Clint,[2]; with 100 µM aspirin,0.0005 ± 5.00 × 10^−5 µM^−2∙min^−1
same,Clint,[2]; with 200 µM aspirin,0.0004 ± 1.00 × 10^−5 µM^−2∙min^−1
same,Alpha prime (α') values,"[2]; aspirin 50, 100 and 200 µM",greater than 1.0
same,"inhibition at 40 min, 50 µM",[2]; [4],12.4 ± 1.2%
same,"inhibition at 40 min, 100 µM",[2]; [4],23.3 ± 3.3%
same,"inhibition at 40 min, 200 µM",[2]; [4],53.6 ± 1.76%
same,Ki,[2]; read-out: Ki (inhibition constant),95.5 µM
same,Strength of inhibition of CYP3A2 isoform activity,[2]; weak if IC50 more than 50 µM,weak inhibitory effect
same,Vmax,[2]; with 50 µM aspirin,0.0123 ± 1.15 × 10^−4 µM^−1∙min^−1
same,Vmax,[2]; with 100 µM aspirin,0.0127 ± 7.94 × 10^−4 µM^−1∙min^−1
same,Vmax,[2]; with 200 µM aspirin,0.0123 ± 1.73 × 10^−4 µM^−1∙min^−1
"C[C@@H]1C[C@H]2[C@@H]3C[C@@H](O)C4=CC(=O)C=C[C@]4(C)[C@@]3(F)[C@@H](O)C[C@]2(C)[C@@]1(O)C(=O)CO [6β-hydroxydexamethasone, 6β-Hydroxydexamethasone]",% Recovery,"[1]; Interday 1, 0.3 µM",89.49%
same,% Recovery,"[1]; Interday 1, 0.5 µM",92.64%
same,% Recovery,"[1]; Interday 1, 0.85 µM",84.06%
same,% Recovery,"[1]; Interday 2, 0.3 µM",105.46%
same,% Recovery,"[1]; Interday 2, 0.5 µM",94.15%
same,% Recovery,"[1]; Interday 2, 0.85 µM",81.57%
same,% Recovery,"[1]; Interday 3, 0.3 µM",106.90%
same,% Recovery,"[1]; Interday 3, 0.5 µM",92.10%
same,% Recovery,"[1]; Interday 3, 0.85 µM",80.51%
same,% Recovery,"[1]; intraday 0 h, 0.3 µM",98.18%
same,% Recovery,"[1]; intraday 0 h, 0.5 µM",94.82%
same,% Recovery,"[1]; intraday 0 h, 0.85 µM",99.34%
same,% Recovery,"[1]; intraday 5 h, 0.3 µM",97.22%
same,% Recovery,"[1]; intraday 5 h, 0.5 µM",87.58%
same,% Recovery,"[1]; intraday 5 h, 0.85 µM",90.45%
same,% Recovery,"[1]; intraday 10 h, 0.3 µM",88.89%
same,% Recovery,"[1]; intraday 10 h, 0.5 µM",87.75%
same,% Recovery,"[1]; intraday 10 h, 0.85 µM",92.98%
same,Solution stability,[1],stable
CYP3A2 (Rattus norvegicus) (protein) MDLLSALTLETWVLLAVILVLLYRLGTHRHGIFKKQGIPGPKPLPFLGTVLNYYKGLGRFDMECYKKYGKIWGLFDGQTPVFAIMDTEMIKNVLVKECFSVFTNRRDFGPVGIMGKAVSVAKDEEWKRYRALLSPTFTSGRLKEMFPIIEQYGDILVKYLKQEAETGKPVTMKKVFGAYSMDVITSTSFGVNVDSLNNPKDPFVEKTKKLLRFDFFDPLFLSVVLFPFLTPIYEMLNICMFPKDSIAFFQKFVHRIKETRLDSKHKHRVDFLQLMLNAHNNSKDEVSHKALSDVEIIAQSVIFIFAGYETTSSTLSFVLYFLATHPDIQKKLQEEIDGALPSKAPPTYDIVMEMEYLDMVLNETLRLYPIGNRLERVCKKDIELDGLFIPKGSVVTIPTYALHHDPQHWPKPEEFHPERFSKENKGSIDPYVYLPFGNGPRNCIGMRFALMNMKLALTKVLQNFSFQPCKETQIPLKLSRQAILEPEKPIVLKVLPRDAVINGA,Km,[3],21.23 ± 0.51 µM

# Source: paper PMC8838585, “Development and Validation of a Novel HPLC Method to Analyse Metabolic Reaction Products Catalysed by the CYP3A2 Isoform: In Vitro Inhibition of CYP3A2 Enzyme Activity by Aspirin (Drugs Often Used Together in COVID-19 Treatment)” (Molecules, 2022)
